Measured values taken from patent US7488811B2, “Macrolide compounds endowed with antiinflammatory activity” (Zambon Group S.p.A., priority 2002, dated 2009).
In brackets after ≈: the same amount, converted by molar mass.

How the values were obtained:
[1] = test system: Enterococcus faecalis ATCC 29212; test: Antibiotic activity, MIC or activity at 128 μg/ml; assay type: cell-based; conditions: Enter. faecalis ATCC 29212; for MIC: Enterococcus faecalis, ATCC29212
Procedure: (§1) The MIC values were determined in liquid earth according to the method described in “Manual of Clinical Microbiology, 7th edition (1999), American Society for Microbiology”.

[2] = test system: LPS-induced accumulation of neutrophils in rat lungs; test: LPS-induced pulmonary inflammation in rats (neutrophil count in bronchial fluid wash); assay type: in vivo; conditions: single oral dose 100, 40, 10 μmol/kg one hour before LPS 0.4 mg/kg endotracheal, 20 h, erythromycin: single oral dose 130 μmol/kg
Procedure: B) LPS-Induced Pulmonary Inflammation in Rats • Administration
The rats received endotracheally, via the peroral route, a single dose of 0.4 mg/kg of LPS (E. coli, serotype 026:6). The tracheal instillation was performed under anaesthesia with halothane and, 20 hours after the endotracheal administration of LPS/saline solution, the animals were sacrificed by means of an overdose of urethane. • Washing
The lungs were washed with 4 aliquots of 5 ml each of saline solution with 10 IU ml^−1 heparin. The cell suspension was concentrated by low-speed centrifugation and the cell pellet was suspended. • Counting of the Cells and Differentiation.
The total cell count was performed in a haemocytometer.
The differential counting was performed on cytospin preparations stained with May-Grunwald-Giemsa (Tamaoki J., Tagaya E., Yamawaki I., Sakai, Nagai A., Konno K, 1995. Effect of erythromycin on endotoxin-induced microvascular leakage in the rat trachea and lungs. Am. J. Respir. Crit. Care Med., 151, 1582-8). The rats received the test compounds orally in doses of 100, 40 and 10 μmol/kg as a single administration dose orally one hour before exposure to LPS.
ED50 value is the dose that induced a 50% reduction in the neutrophil count in the bronchial fluid wash.
The data relating to erythromycin refers to an oral treatment with a single dose of 130 μmol/kg.

[3] = test system: Streptococcus pneumoniae ATCC 49619; test: Antibiotic activity, MIC in liquid medium; assay type: cell-based; conditions: ATCC49619, Strep. pneum ATTC 49619
Procedure: as §1

[4] = test system: Staphylococcus aureus ATCC 29213; test: Antibiotic activity, MIC in liquid medium; assay type: cell-based; conditions: ATCC29213, Staph. aureus ATCC 29213
Procedure: as §1

[5] = test system: PMA-induced oedema in mouse ear; test: Acute contact dermatitis: TPA (PMA)-induced ear oedema in mice; assay type: in vivo; conditions: CD1 mice, 500 μg/ear topical in TPDS 30 min before TPA 0.01%, 6 h
Procedure: Groups of 5-6 CD1 mice (18-24 g) were used. • Administration of the compounds
All the macrolide compounds were dissolved in Trans-phase Delivery System (TPDS), a vehicle formed by 10% benzyl alcohol, 40% acetone and 50% isopropanol.
15 microlitres of the compounds (500 μg), dissolved in TPDS, were applied topically to the inner surface of an ear; 30 minutes later, 12 microlitres of a solution of tetradecanoylphorbol acetate (TPA) at a concentration of 0.01% dissolved in acetone were applied to the same area.
Six hours later, the animals were sacrificed by inhalation of CO2. • Evaluation of the results
Two methods were used to evaluate the auricular oedema: • a) Weight of a given portion of auricular pinna. • b) Measurement of the auricular thickness using precision spring callipers.
The degree of oedema was calculated by subtracting the weight or the thickness of the untreated ear from that of the contralateral treated ear. To determine the degree of remission of the oedema, the difference (weight or thickness) of the groups treated with TPA+macrolides was then compared with the groups treated with TPA alone.
The activity of the macrolide compounds was measured by using the modified method of Zunic et al. (1998): MDL (Lysyl) GDP, a non-toxic muramyl dipeptide derivative inhibits cytokine production by activated macrophages and protects mice from phorbol ester- and oxazolone-induced inflammation (J. Invest. Dermatol., 111(1), 77-82).
The data relating to erythromycin and azythromycin concern the treatment with a single dose of 500 μg/ear.

[6] = test system: Streptococcus pyogenes ATCC 19615; test: Antibiotic activity at 128 μg/ml; assay type: cell-based; conditions: Strep. pyogenes ATTC 19615
Procedure: as §1

[7] = test system: Staphylococcus aureus ATCC 6538; test: Antibiotic activity at 128 μg/ml; assay type: cell-based; conditions: Staph. aureus ATCC 6538
Procedure: as §1

[8] = Water solubility noted at work-up; assay type: physicochemical; conditions: remark in the work-up
Procedure: Compound 19 was prepared from intermediate 28 (600 mg, 0.64 mmol) according to the procedures described for compound 1. Given that the product is water-soluble, the crude solid was dissolved in water (50′ ml) and washed with CH2Cl2 (3×20 ml). The solvent was evaporated from the aqueous phase under vacuum and dried to give compound 19 (480 mg, 95% yield) as a crystalline solid. • [M+1]^+ 775

[9] = method a: weight of a given portion of auricular pinna

SMILES	Antibiotic activity at 128 μg/ml ([1]; 128 μg/ml)	MIC [1] [µg/mL]	ED50 ([2]; Rattus norvegicus, Neutrophil, read-out: ED50 (dose inducing 50% reduction in neutrophil count in bronchial fluid wash)) [µmol/kg]	MIC [3] [µg/mL]	MIC [4] [µg/mL]	inhibition in vivo at 500 µg/ear [5, 9] [%]	Antibiotic activity at 128 μg/ml ([6]; 128 μg/ml)	Antibiotic activity at 128 μg/ml ([7]; 128 μg/ml)	Solubility in water [8]	inhibition in vivo at 500 µg/ear ([5]; method b: auricular thickness by precision spring callipers) [%]	ED50 (dose inducing 50% reduction in neutrophil count in bronchial fluid wash) [2]	MIC ([6]; Streptococcus pyogenes, ATCC19615) [µg/mL]	MIC ([7]; Staphylococcus aureus, ATCC6538) [µg/mL]
CC[C@H]1OC(=O)[C@H](C)[C@@H](O)[C@H](C)[C@@H](O[C@@H]2O[C@H](C)C[C@H](N(C)C(C)=O)[C@H]2O)C(C)(O)C[C@@H](C)[C@H](O)[C@H](C)[C@@H](O)[C@]1(C)O (some centres unmarked) [Compound 1]	not active	> 128	7	> 128	> 128	65.6	not active	not active	–	–	–	–	–
CC[C@H]1OC(=O)[C@H](C)[C@@H](O)[C@H](C)[C@H](O[C@@H]2O[C@H](C)CC(N(C)C)[C@@H]2O)[C@](C)(O)C[C@@H](C)/C(=N\OCCNCCNCc2nccs2)[C@H](C)[C@H](O)[C@]1(C)O (some centres unmarked) [Compound 19]	–	> 128	–	16 (≈ 20.7 µM)	> 128	–	–	–	water-soluble	28.2	–	–	–
CC[C@H]1OC(=O)[C@H](C)[C@@H](O[C@H]2C[C@@](C)(OC)[C@@H](O)[C@H](C)O2)[C@H](C)[C@@H](O[C@@H]2O[C@H](C)C[C@H](N(C)C)[C@H]2O)[C@](C)(O)C[C@@H](C)C(=O)[C@H](C)[C@@H](O)[C@]1(C)O [Erythromycin, reference compound]	–	1 (≈ 1.36 µM)	–	0.12 (≈ 0.164 µM)	0.25 (≈ 0.341 µM)	42	–	–	–	–	Not active	0.12 (≈ 0.164 µM)	0.25 (≈ 0.341 µM)
